Molecules are shown by their SMILES.

By melting point is commonly meant the temperature, or range, at which the solid turns liquid.

Consider `CCOc1ccc2cccnc2c1[N+](=O)[O-]`, for which the melting point was in the range of 161 to 164 °C. Take `CCOC(=O)c1c(C)nn2ccc3c(c12)CCO3`: the melting point fell in the range of 173 to 174 °C. `COc1cc(-c2ccccc2Cl)c(Cl)cc1C(=O)N1Cc2ccc(C(=O)O)n2Cc2ccccc21` yielded a melting point of 209 to 211 °C. The result for `Cc1ccc(CC2CCN(C(=O)CNc3ccc4c(c3)OCC(=O)N4)CC2)cc1` reads 206 to 208 °C; that for `Clc1ccc(C=Cc2nc(CNc3ccc(CCCCn4ccnn4)cc3)co2)cc1`, 120 to 122 °C. To `CCOC(=O)c1cccnc1Oc1cncc(Cl)c1` belongs 65 to 69 °C.

`OC(CSCc1ccc(Cl)cc1)C12CC3CC(CC(C3)C1)C2` (stereo not drawn): the melting point lay in the range of 74 to 79 °C.

Take `O=C(NC1CC1)c1cccc(-c2ccc3ccn(-c4ccc(Cl)cc4Cl)c3c2)c1`: the melting point lay within 273 to 274 °C. To `COc1ccc(N(N=Cc2ccccc2)C(=O)c2ccccc2)cc1` belongs 151 to 153 °C. The result for `CC1(N2C(=O)c3cccc(NC(=O)c4cccc(Cl)c4)c3C2=O)CCC(=O)NC1=O` (stereo not drawn) reads 283 to 285 °C.

With `CC(=O)OC1(C)CCCCC1C1CCCCC1` (stereo not drawn), the melting point was found to be 35 °C.

Turning to `O=[N+]([O-])c1cc(Cl)c(OCCCO)c([N+](=O)[O-])c1OCCCO`, the melting point came out at 90 °C. The result for `CC(C)(C)NC(=O)c1ccc(-c2cccc3cncn23)cc1` reads 128 to 131 °C. `C=CCNC(=O)N1CC(Oc2cccc(C)c2)C1` showed a melting point of 95 to 96 °C. The result for `COc1ccc(NC(=O)OCCCl)c(OC)c1NC(=O)OCCCl` reads 105 °C. The result for `CCCCCCOc1c(F)ccc(C(N)=O)c1F` reads 86 to 87 °C.

`O=C(O)COc1c(I)cc(C(=O)c2cccs2)cc1I` gave a melting point of 160 °C.

`COC(=O)c1cccc(F)c1OC` came in with a melting point of 99 to 101 °C.

`O=S1(=O)c2cccc3cccc(c23)N1CCN1CCC(CC2CNc3ccccc3C2)CC1` (stereo not drawn) gave a melting point of 134 °C. To `O=c1c2ccc(-c3nnn[nH]3)cc2oc2ccc(-c3nnn[nH]3)cc12` belongs above 400 °C; to `CN1C(=O)C(C(=O)Nc2ccc(Cl)cc2)S(=O)(=O)c2ccccc21` (stereo not drawn), 220 to 222 °C; to `CCNc1cccc(NC(=O)COC(C)=O)c1C#N`, 110 to 113 °C.

On to `COc1ccc(N(Cc2cc(C(C)(C)C)c(O)c(C(C)(C)C)c2)S(=O)(=O)c2cccs2)cn1`, for which the melting point was 96 to 97 °C. `CCCCCCCCc1ccc(C#Cc2c3ccccc3c(C#Cc3ccc(CCCCCCCC)cc3)c3ccccc23)cc1` displayed a melting point of 131 to 133 °C.

Compound `Cc1nc(-n2cnn(CC3CC3)c2=O)sc1C(=O)NCc1cc[nH]n1` returned a melting point of 167 to 168 °C. `C[C@H](N)c1ccc(O)cc1` returned a melting point of 120 °C. In the case of `O=c1[nH]c2cccc(OCC(O)CNCCc3ccc(-n4c(CCC5CCCC5)nc5cccnc54)cc3)c2[nH]1` (stereo not drawn), the melting point fell in the range of 115 to 117 °C.

Take `OCCN1CCC(=C2c3ccccc3Sc3ccc(Cl)cc32)CC1`: the melting point fell in the range of 178 to 180 °C. With `O=C(O)CCC(=O)Cc1ccc2c(c1)Cc1cccnc1O2`, the melting point lay in the range of 146 to 147 °C. The compound `CC(=NO)c1ccc2c(c1)C(=NNc1cccc(S(N)(=O)=O)c1C)C(=O)N2` gave a melting point above 250 °C. Take `Cc1oc2cc3sc4ccccc4c3c(-c3cc(I)c(O[C@H](C)C(=O)O)c(I)c3)c2c1C`: the melting point lay in the range of 218 to 219 °C.

On to `NC(=O)CC(O)(Cn1cncn1)c1ccc(Cl)cc1Cl` (stereo not drawn), for which the melting point fell in the range of 144 to 145 °C. To `O=C(O)C(Oc1ccccc1)c1ccc(Oc2ccccc2)cc1` (stereo not drawn) belongs 144 to 146 °C.

`COC(=O)[C@H]1C[C@H](NC(=O)Oc2ccccc2)c2c(Cl)cc(Cl)cc2N1` (relative stereo) displayed a melting point of 159 to 161 °C.

Compound `CC(C)n1nc(-c2nc(Sc3ccc(F)cc3)c(N)nc2-c2ccccc2)ccc1=O` registered a melting point of 148 to 150 °C.

Compound `O=CC=Cc1c(C2CC2)nc2ccccc2c1-c1ccc(F)cc1` gave a melting point of 146 to 147 °C. Compound `CCCn1c(=O)c2[nH]c(/C=C/c3ccco3)nc2n(CCC)c1=O` registered a melting point of 258 to 259 °C.

`CNC1CN(c2c(F)c(N)c3c(=O)c(C(=O)O)cn(-c4nc(N)c(F)cc4F)c3c2Cl)C1` came in with a melting point of 204 to 213 °C. The result for `O=C(O)c1ccc(C(=O)NS(=O)(=O)c2ccc(Cl)cc2)cc1` reads 285 to 287 °C. `CCOc1ccccc1-c1cc(OC)c(C(=O)N2Cc3cccn3Cc3ccccc32)cc1Cl` came in with a melting point of 213 to 215 °C. The result for `Nc1cc(C(=O)O)cc(S(N)(=O)=O)c1Nc1cccc(C(F)(F)F)c1` reads 273 to 274 °C; that for `Cc1oc(-c2ccccc2)nc1COc1ccc2cc(Cn3cc(CCC(=O)O)c(-c4ccccc4)c3)ccc2c1`, 122 to 123 °C. In turn, `COn1c(C)nc2cc(C(=O)c3ccccc3)ccc21` came in with a melting point of 67.7 °C. To `NCC1Cc2cc(-c3ccccc3)cc(-c3ccccc3Cl)c2O1` (stereo not drawn) belongs above 250 °C; to `CCCCCCCCCCCCCCOc1ccc(C(=O)N(Cc2cccnc2)C(C)=O)cc1`, 46 to 48 °C.

For the compound `Cc1c[nH]c2c1C(=O)CC(c1ccccc1Cl)C2` (stereo not drawn), the melting point lay in the range of 201 to 209 °C.

As to `O=C(NCc1ccc(F)c(F)c1)c1cc(-n2cnn(Cc3ccc(F)cc3)c2=O)n[nH]1`, the melting point fell in the range of 208 to 209 °C. `O=C(Cc1cc(F)cc(F)c1)NCC(=O)N[C@@H]1C(=O)Nc2ccccc2S[C@@H]1c1ccccc1` showed a melting point of 125 to 130 °C.

The compound `CC(=O)NCC1CCC(Nc2nc3c(s2)CCCc2ccc(F)cc2-3)CC1` (stereo not drawn) had a melting point of 88 to 91 °C.

The compound `COc1ccccc1Oc1ccc(Br)cc1OC` displayed a melting point of 58 to 60 °C. To `N#CC=Cc1ccc(F)c(Cl)c1F` belongs 76 to 77 °C; to `Cc1nc(N)sc1S(=O)(=O)NC(C)(CO)CO`, 170 °C.

The compound `CN(C)c1nn(-c2cc(F)c(C#N)cc2F)c(=O)n1N` registered a melting point of 154 to 155 °C.

As for `COC(=O)C1CCCN1C(=O)c1ccccc1` (stereo not drawn), the melting point was in the range of 88.5 to 90 °C.

In the case of `Cc1cccc2c1CCC(=O)C2(O)C(F)(F)F` (stereo not drawn), the melting point was 122 to 123 °C. The result for `CC1=C(C)C(=O)C(C(CCCCCC(=O)O)c2cccnc2)=C(C)C1=O` (stereo not drawn) reads 126 to 127 °C; that for `CC(N)Oc1cccc2c1ccn2S(=O)(=O)c1ccccc1F` (stereo not drawn), 147 to 150 °C. To `COc1ccccc1-c1ncsc1C(=O)O` belongs 170 to 172 °C; to `CCOC(=O)c1c(O)c2cc(Cl)cnc2n(Cc2ccccc2)c1=O`, 141 to 142 °C; to `Cc1cc([N+](=O)[O-])c(O)c2c1CCC2=O`, 154 to 157 °C. Compound `C=CCC(NC(=O)CC)C(=O)O` (stereo not drawn) registered a melting point of 96 to 98 °C. The compound `CCc1cc2oc3cc(-c4ccccc4Cl)c4c(c3c2cc1OC)C(=O)NC4=O` came in with a melting point of 252 to 257 °C. The result for `Nc1c(OCCCNCc2ccccc2)cccc1[N+](=O)[O-]` reads 66 to 67 °C; that for `CCc1nc(OC)c(NC(=O)N2CCN(c3cc(OC)c(OC)c(OC)c3)CC2)cc1C(=O)Nc1cc(CO)cc(Nc2c3ccccc3nc3ccccc23)c1`, 190 to 192 °C; that for `CC(C)(C)NC(=O)CCCCl`, 62.5 to 64 °C. Take `O=C(C1CC=CCC1)N1c2ccccc2CCC1CN1CCN(c2cccc3[nH]ccc23)CC1` (stereo not drawn): the melting point was in the range of 156 to 160 °C.

Turning to `CS(=O)(=O)NCCS(=O)(=O)N1CCN(S(=O)(=O)c2ccc(-c3ccc(Cl)cc3)s2)[C@@H](C(=O)NO)C1`, the melting point was in the range of 118 to 122 °C. `Cn1cnc2nc(-c3ccc(C(F)(F)F)cc3)nn2c1=S`: the melting point lay within 270 to 272 °C. To `NCC1Cc2cc(-c3ccc(C(F)(F)F)cc3)cc(F)c2O1` (stereo not drawn) belongs above 250 °C; to `N#Cc1cc(-c2ccc(Cl)cc2)cnc1Cl`, 185 to 187 °C. To `COC(C)c1ccc(C=C(C)c2ccc3c(c2)C(C)(C)CCC3(C)C)cc1` (stereo not drawn) belongs 88 to 89 °C; to `O=[N+]([O-])c1cccc(Cn2ccnc2)c1`, 97 to 98 °C; to `Cc1nnc(N2C(=O)C(O)=C(C(=O)c3ccc(C(C)C)cc3)C2c2ccc(C(F)(F)F)cc2)s1` (stereo not drawn), 257 °C.

Compound `Cc1cc2c(c(C)c1O)C(C)CN2C(=O)C(C)C` (stereo not drawn) gave a melting point of 123 to 125 °C. The result for `Cc1cc(C)nc(NC(=NO)NS(=O)(=O)c2ccccc2Cl)n1` reads 165 to 167 °C; that for `O=C(O)C(Oc1ccccc1)(C(F)(F)F)C(F)(F)F`, 6 to 8 °C. Take `Clc1ccc(-c2cc3ccccc3nc2Cl)c(Cl)c1`: the melting point lay within 120 to 122 °C. The result for `O=C1NCc2c(-c3ccccc3)cccc2N1CCN1CCOCC1` reads 228 to 229 °C. To `COc1nc(N)nc2c1ncn2C1OC(CO)C(OC(=O)c2ccccc2)C1O` (stereo not drawn) belongs 155 to 157 °C; to `CCC1(CC)CN(C(C)(C)C)C(=O)C(C)(CC)N1OC(C)c1ccccc1` (stereo not drawn), 76 to 79 °C; to `COc1cc(C(C)C)ccc1C1(NC(=O)c2ccccc2)C(=O)c2ccccc2C1=O`, 106 to 108 °C.

Consider `CCOC(=O)C(=O)/C=C/c1ccc(OCCc2nc(-c3ccccc3)oc2C)cc1`, for which the melting point is 99 to 100 °C. To `C=CCNc1nc(NCC(F)(F)F)nc2ccc([N+](=O)[O-])cc12` belongs 221 to 222 °C; to `CC(C)C[C@@H](C#N)NC(=O)[C@@H]1CCCC[C@@H]1NC(=O)c1cc2ccccc2n1CC(C)(C)O`, 102 to 106 °C; to `Cc1c2c(c(C)c(NC(=O)CC(C)(C)C)c1-c1ccccc1)C(c1ccc(C(C)C)cc1)CO2` (stereo not drawn), 212 to 213 °C. The result for `CCCCN(C(=O)CCC(=O)O)C1CC(C)(C)N(OC2CCCCC2)C(C)(C)C1` reads 110 to 113 °C; that for `O=C(O)c1cccc2cc3ccccc3cc12`, 245 °C. The result for `COc1cccc2c(=O)n(C(C)(C)C(=O)O)c(=O)[nH]c12` reads 255 to 258 °C.
